Test results: patent US8137705B2 (priority 2005, dated 2012)

Assays:
Assay type in all cases: cell-based
E. coli O26:H11 = E. coli O26:H11 counts in water containing rumen content or feces treated with chemical combinations; settings: 21° C.; for E. coli O26:H11 counts (log10 cfu/ml) at min: 0: 0 min; for E. coli O26:H11 counts (log10 cfu/ml) at min: 2: 2 min; for E. coli O26:H11 counts (log10 cfu/ml) at min: 5: 5 min; for E. coli O26:H11 counts (log10 cfu/ml) at min: 10: 10 min; for E. coli O26:H11 counts (log10 cfu/ml) at min: 20: 20 min; for E. coli O26:H11 counts (log10 cfu/ml) at min: 30: 30 min; for E. coli O26:H11 counts (log10 cfu/ml) at min: 60: 60 min; for E. coli O26:H11 counts (log10 cfu/ml) at min: 120: 120 min
E. coli O111:NM = E. coli O111:NM counts in water containing rumen content or feces treated with chemical combinations; settings: 21° C.; for E. coli O111:NM counts (log10 cfu/ml) at min 0: 0 min; for E. coli O111:NM counts (log10 cfu/ml) at min 2: 2 min; for E. coli O111:NM counts (log10 cfu/ml) at min 5: 5 min; for E. coli O111:NM counts (log10 cfu/ml) at min 10: 10 min; for E. coli O111:NM counts (log10 cfu/ml) at min 20: 20 min; for E. coli O111:NM counts (log10 cfu/ml) at min 30: 30 min; for E. coli O111:NM counts (log10 cfu/ml) at min 60: 60 min; for E. coli O111:NM counts (log10 cfu/ml) at min 120: 120 min
E. coli O157:H7 = E. coli O157:H7 counts in water containing rumen content or feces treated with chemicals or chemical combinations; settings: for E. coli O157:H7 counts (log10 cfu/ml) at min 0 / E. coli O157:H7 counts (log10 cfu/ml) at min 2 / E. coli O157:H7 counts (log10 cfu/ml) at min 5 / E. coli O157:H7 counts (log10 cfu/ml) at min 10 / E. coli O157:H7 counts (log10 cfu/ml) at min 20 / E. coli O157:H7 counts (log10 cfu/ml) at min 30 / E. coli O157:H7 counts (log10 cfu/ml) at min 60 / E. coli O157:H7 counts (log10 cfu/ml) at min 120: 21° C.; for E. coli O157:H7 counts (log10 cfu/ml) at min 0: 0 min; for E. coli O157:H7 counts (log10 cfu/ml) at min 2: 2 min; for E. coli O157:H7 counts (log10 cfu/ml) at min 5: 5 min; for E. coli O157:H7 counts (log10 cfu/ml) at min 10: 10 min; for E. coli O157:H7 counts (log10 cfu/ml) at min 20: 20 min; for E. coli O157:H7 counts (log10 cfu/ml) at min 30: 30 min; for E. coli O157:H7 counts (log10 cfu/ml) at min 60: 60 min; for E. coli O157:H7 counts (log10 cfu/ml) at min 120: 120 min
[1] = water containing feces (20:1, v/w)
[2] = water containing rumen content (10:1, v/w)

CCCCCCCC(=O)O [0.05% caprylic acid, caprylic acid]
2.0 log10 cfu/ml: E. coli O157:H7 counts (log10 cfu/ml) at min 20 (E. coli O157:H7; [1]) | E. coli O157:H7 counts (log10 cfu/ml) at min 30 (E. coli O157:H7; [1]) | E. coli O157:H7 counts (log10 cfu/ml) at min 60 (E. coli O157:H7; [1])
substantial inactivation: inactivation of E. coli O157:H7 within 20 minutes (E. coli O157:H7; butyric acid >2%, caprylic acid >0.1%, data not shown)
5.4 log10 cfu/ml: E. coli O26:H11 counts (log10 cfu/ml) at min: 2 (E. coli O26:H11; [1]) | E. coli O26:H11 counts (log10 cfu/ml) at min: 2 (E. coli O26:H11; [2]) | E. coli O26:H11 counts (log10 cfu/ml) at min: 10 (E. coli O26:H11; [2]) | E. coli O26:H11 counts (log10 cfu/ml) at min: 30 (E. coli O26:H11; [2]) | E. coli O26:H11 counts (log10 cfu/ml) at min: 60 (E. coli O26:H11; [2]) | E. coli O26:H11 counts (log10 cfu/ml) at min: 120 (E. coli O26:H11; [2]) | E. coli O111:NM counts (log10 cfu/ml) at min 120 (E. coli O111:NM; [1]) | E. coli O111:NM counts (log10 cfu/ml) at min 60 (E. coli O111:NM; [2])
1.7 log10 cfu/ml: E. coli O157:H7 counts (log10 cfu/ml) at min 120 (E. coli O157:H7; [1])
4.3 log10 cfu/ml: E. coli O157:H7 counts (log10 cfu/ml) at min 5 (E. coli O157:H7; [1])
5.7 log10 cfu/ml: E. coli O111:NM counts (log10 cfu/ml) at min 0 (E. coli O111:NM; [1]) | E. coli O111:NM counts (log10 cfu/ml) at min 5 (E. coli O111:NM; [1]) | E. coli O111:NM counts (log10 cfu/ml) at min 30 (E. coli O111:NM; [1]) | E. coli O111:NM counts (log10 cfu/ml) at min 5 (E. coli O111:NM; [2])
5.9 log10 cfu/ml: E. coli O157:H7 counts (log10 cfu/ml) at min 10 (E. coli O157:H7; [2]) | E. coli O157:H7 counts (log10 cfu/ml) at min 30 (E. coli O157:H7; [2]) | E. coli O157:H7 counts (log10 cfu/ml) at min 60 (E. coli O157:H7; [2])
5.0 log10 cfu/ml: E. coli O26:H11 counts (log10 cfu/ml) at min: 120 (E. coli O26:H11; [1])
5.3 log10 cfu/ml: E. coli O26:H11 counts (log10 cfu/ml) at min: 20 (E. coli O26:H11; [1]) | E. coli O26:H11 counts (log10 cfu/ml) at min: 0 (E. coli O26:H11; [2]) | E. coli O26:H11 counts (log10 cfu/ml) at min: 20 (E. coli O26:H11; [2])
2.3 log10 cfu/ml: E. coli O157:H7 counts (log10 cfu/ml) at min 10 (E. coli O157:H7; [1])
5.6 log10 cfu/ml: E. coli O111:NM counts (log10 cfu/ml) at min 20 (E. coli O111:NM; [1]) | E. coli O111:NM counts (log10 cfu/ml) at min 0 (E. coli O111:NM; [2]) | E. coli O111:NM counts (log10 cfu/ml) at min 30 (E. coli O111:NM; [2]) | E. coli O157:H7 counts (log10 cfu/ml) at min 2 (E. coli O157:H7; [1])
6.0 log10 cfu/ml: E. coli O157:H7 counts (log10 cfu/ml) at min 0 (E. coli O157:H7; [1]) | E. coli O157:H7 counts (log10 cfu/ml) at min 0 (E. coli O157:H7; [2]) | E. coli O157:H7 counts (log10 cfu/ml) at min 2 (E. coli O157:H7; [2]) | E. coli O157:H7 counts (log10 cfu/ml) at min 5 (E. coli O157:H7; [2]) | E. coli O157:H7 counts (log10 cfu/ml) at min 20 (E. coli O157:H7; [2]) | E. coli O157:H7 counts (log10 cfu/ml) at min 120 (E. coli O157:H7; [2])
5.5 log10 cfu/ml: E. coli O26:H11 counts (log10 cfu/ml) at min: 0 (E. coli O26:H11; [1]) | E. coli O26:H11 counts (log10 cfu/ml) at min: 5 (E. coli O26:H11; [1]) | E. coli O26:H11 counts (log10 cfu/ml) at min: 10 (E. coli O26:H11; [1]) | E. coli O111:NM counts (log10 cfu/ml) at min 2 (E. coli O111:NM; [1]) | E. coli O111:NM counts (log10 cfu/ml) at min 10 (E. coli O111:NM; [1]) | E. coli O111:NM counts (log10 cfu/ml) at min 60 (E. coli O111:NM; [1]) | E. coli O111:NM counts (log10 cfu/ml) at min 2 (E. coli O111:NM; [2]) | E. coli O111:NM counts (log10 cfu/ml) at min 10 (E. coli O111:NM; [2]) | E. coli O111:NM counts (log10 cfu/ml) at min 120 (E. coli O111:NM; [2])
5.8 log10 cfu/ml: E. coli O111:NM counts (log10 cfu/ml) at min 20 (E. coli O111:NM; [2])
5.2 log10 cfu/ml: E. coli O26:H11 counts (log10 cfu/ml) at min: 30 (E. coli O26:H11; [1]) | E. coli O26:H11 counts (log10 cfu/ml) at min: 60 (E. coli O26:H11; [1]) | E. coli O26:H11 counts (log10 cfu/ml) at min: 5 (E. coli O26:H11; [2])
